Holding throughout (assay): greenhouse post-emergence herbicidal test
Common to all, as to assay type: in vivo
Holding throughout (settings): post-emergence method, application rate 0.125 kg/ha; scale 0 to 100

One assay relates to Avena fatua (AVEFA). An excerpt:
(§1) The culture containers used were plastic flowerpots containing loamy sand with approximately 3.0% of humus as the substrate. The seeds of the test plants were sown separately for each species.
(§2) For the pre-emergence treatment, the active ingredients, which had been suspended or emulsified in water, were applied directly after sowing by means of finely distributing nozzles. The containers were irrigated gently to promote germination and growth and subsequently covered with transparent plastic hoods until the test plants had rooted. This cover caused uniform germination of the test plants, unless this had been impaired by the active ingredients. For the post-emergence treatment, the test plants were first grown to a height of 3 to 15 cm, depending on the plant habit, and only then treated with the active ingredients which had been suspended or emulsified in water. For this purpose, the test plants were either sown directly and grown in the same containers, or they were first grown separately as seedlings and transplanted into the test containers a few days prior to treatment.
(§3) Depending on the species, the test plants were kept at 10-25° C. or 20-35° C., respectively. The test period extended over 2 to 4 weeks. During this time, the test plants were tended, and their response to the individual treatments was evaluated.
(§4) Evaluation was carried out using a scale from 0 to 100. 100 means no emergence of the test plants, or complete destruction of at least the aerial moieties, and 0 means no damage, or normal course of growth. A good herbicidal activity is given at values of 65 to 90 and a very good herbicidal activity is given at values of 90 to 100.
(§5) The test plants used in the greenhouse experiments were of the following species: […]

Assay [1] concerns Alopecurus myosuroides (ALOMY).
Description: as §1, §2, §3, §4, §5

In assay [2] the test system is Abutilon theophrasti (ABUTH).
Description: as §1, §2, §3, §4, §5

With `COC(=O)[C@@H]1C=C[C@H](NC(=O)C2(C(=O)Nc3cc(F)cc(F)c3)CC2)C1` [I.2, methyl (1S,4R)-4-{1-[(3,5-difluorophenyl)carbamoyl]cyclopropaneamido}cyclopent-2-ene-1-carboxylate], in the assay on Avena fatua (AVEFA), the “herbicidal activity against AVEFA” value is “very good (a very good herbicidal activity is given at values of 90 to 100)”. Besides, in assay [1], the “herbicidal activity against ALOMY” value was “very good (a very good herbicidal activity is given at values of 90 to 100)”. For the same compound, the “herbicidal activity against ABUTH” value in assay [2] was “good (A good herbicidal activity is given at values of 65 to 90)”.

The values above are taken from patent US12690586B2, “Herbicidal malonamides” (BASF SE, priority 2020, dated 2026).
